The test system of one test is OCI-LY10 cells. As to the kind of experiment: Cell proliferation inhibition in vitro, OCI-ly10 cells by CCK-8 method. The class given is cell-based. Particulars: Homo sapiens, 72 hours, read-out: Inhibitions of cell activities IC50 (nM) OCI-LY10. As to the method: (§1) Test Example 2: Determination of the Inhibition of Cell Proliferation Inhibitory Activity in
(§2) vitro of compounds using different cell lines
(§3) 2: Preparation of the Compounds:
(§4) The compounds to be tested were diluted with DMSO to prepare a mother liquor at a final concentration of 10 mM for later use.
(§5) 3.1. Test of TMD8 and OCI-ly10 Cells by CCK-8 Method
(§6) Logarithmic growth phase cells were collected, counted and resuspended in complete medium. The cell concentration was adjusted to a suitable concentration (determined according to the cell density optimization test results), and seeded to 96-well plate and 100 μl of the cell suspension was added to each well. The cells were incubated in an incubator at 37° C., 100% relative humidity and 5% C02 for 24 hours.
(§7) The compounds to be tested were diluted with the medium to the set corresponding action concentration, and the cells were added at 25 µl/well. The cells were incubated in an incubator at 37° C., 100% relative humidity and 5% C02 for 72 hours.
(§8) The medium was aspirated and discarded, and a complete medium containing 10% of the test reagent was added and the obtained system was incubated in a 37° C. incubator for 1 hour-4 hours.
(§9) As: OA of the sample (cell+test reagent+test compound)
(§10) Ac: OA of the negative control (cell+test reagent+DMSO)
(§11) Ab: OA of the positive control (medium+test reagent+DMSO)
(§12) IC50 curve fitting was performed using the software Graphpad Prism 5 or XLfit and IC50 values were calculated.
A general note: Tetrazolium assays rely on reduction of a dye to a coloured formazan, in cell work by metabolically active cells.

For a further test, the system named is DOHH2 cells. As to the kind of experiment: Cell proliferation inhibition in vitro, DOHH2 cells by CTG assay. The class given is cell-based. Particulars: Homo sapiens, DOHH-2, 72 hours, read-out: Inhibitions of cell activities IC50 (nM) DOHH2. As to the method:
as §1, §2, §3, §4
3.2 Test of DOHH2 Cells by CTG Assay
as §6
The compounds to be tested were diluted with the medium to the set corresponding action concentration, and the cells were added at 10 µl/well. The cells were incubated in an incubator set at 37° C., 100% relative humidity and 5% C02 for 72 hours.
The medium was aspirated and discarded, and 30 μl of test reagent was added. The plate was gentle shaken away from the light to lyse the cells.
as §9, §10, §11, §12

The next test deals with TMD8 cells. As to the kind of experiment: Cell proliferation inhibition in vitro, TMD8 cells by CCK-8 method. Particulars: Homo sapiens, 72 hours, read-out: Inhibitions of cell activities IC50 (nM) TMD8. The class given is cell-based. As to the method: as §1, §2, §3, §4, §5, §6, §7, §8, §9, §10, §11, §12
The target of a further test is BTK kinase (Homo sapiens (Human), UniProt Q06187). The test is described as follows: In vitro assay for the inhibition of BTK kinase activity (Mobility-Shift Assay). The class given is biochemical. The text has this:
Mobility-Shift Assay, which is microfluidic chip technology, applies the basic concept of capillary electrophoresis to microfluidic environments. The substrate used for the experiment is a polypeptide with a fluorescent label. Under the action of enzyme in the reaction system, the substrate is transformed into a product, and the charge the substrate carries also changes accordingly. The use of the charge difference between the substrate and the product involved in Mobility-Shift Assay achieves the separating of the two, and they are tested respectively. The test results are expressed by conversion rates.
(3) 100% DMSO was added to the positive control well and the negative control well, respectively;

A value given as a limit tells only on which side of the number the result lay.

Chain of BTK kinase (Q06187 whole entry): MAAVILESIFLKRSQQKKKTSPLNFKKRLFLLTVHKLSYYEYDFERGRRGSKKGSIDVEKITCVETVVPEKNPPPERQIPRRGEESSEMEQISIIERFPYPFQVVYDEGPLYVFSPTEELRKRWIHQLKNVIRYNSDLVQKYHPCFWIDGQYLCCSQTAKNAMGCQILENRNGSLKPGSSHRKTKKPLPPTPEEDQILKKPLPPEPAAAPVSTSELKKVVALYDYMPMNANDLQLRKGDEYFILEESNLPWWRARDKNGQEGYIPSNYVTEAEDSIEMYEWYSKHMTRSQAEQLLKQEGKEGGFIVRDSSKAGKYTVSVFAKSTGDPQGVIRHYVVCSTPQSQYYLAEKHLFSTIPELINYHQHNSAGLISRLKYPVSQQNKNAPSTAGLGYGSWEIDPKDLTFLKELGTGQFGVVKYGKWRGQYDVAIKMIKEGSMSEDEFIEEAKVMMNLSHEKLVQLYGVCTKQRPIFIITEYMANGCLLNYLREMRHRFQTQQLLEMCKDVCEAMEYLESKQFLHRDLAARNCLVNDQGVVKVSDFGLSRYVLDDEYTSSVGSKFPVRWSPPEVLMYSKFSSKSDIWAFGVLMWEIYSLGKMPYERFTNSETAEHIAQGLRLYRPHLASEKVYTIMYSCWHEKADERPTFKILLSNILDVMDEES

In general, IC50 refers to the concentration that inhibits the measured activity by half. On to `CC#CC(=O)N1C[C@H]2[C@@H](C1c1nc(-c3ccc(C(=O)Nc4cc(C(F)(F)F)ccn4)cc3)c3c(N)nccn13)C2(C)C` (stereo partly drawn) [Example 45], for which the IC50 is 1.1 nM in the test on OCI-LY10 cells, 285 nM in the test with DOHH2 cells, 6.4 nM in the test on TMD8 cells and 17 nM at BTK kinase.
Take `C=CC(=O)N1C2CC[C@@H](C2)C1c1nc(-c2ccc(C(=O)Nc3cc(C(F)(F)F)ccn3)cc2)c2c(N)nccn12` (stereo partly drawn) [Example 46]: the IC50 with OCI-LY10 cells came out at 0.37 nM; with DOHH2 cells, 94.3 nM; in the test on TMD8 cells, 3.4 nM; on BTK kinase it was 4.2 nM.
Regarding `C=CC(=O)N1C2CCC1(c1nc(-c3ccc(C(=O)Nc4cc(C(F)(F)F)ccn4)cc3)c3c(N)nccn13)COC2` (stereo not drawn) [Example 48], the IC50 with OCI-LY10 cells amounted to 0.46 nM; with DOHH2 cells, 103 nM; in the test on TMD8 cells, 0.31 nM; at BTK kinase, 2.1 nM.
`CC#CC(=O)N1C2CCC1(c1nc(-c3ccc(C(=O)Nc4cc(C(F)(F)F)ccn4)cc3)c3c(N)nccn13)COC2` (stereo not drawn) [Example 49]: the half-maximal inhibitory concentration (IC50) in the test with OCI-LY10 cells stood at 3.4 nM; in the test on DOHH2 cells, 436 nM; with TMD8 cells, 6.4 nM; on BTK kinase, 4.8 nM.
For `C=CC(=O)N1C2CN[C@@H](C2)C1c1nc(-c2ccc(C(=O)Nc3cc(C(F)(F)F)ccn3)cc2)c2c(N)nccn12` (stereo partly drawn) [Example 52], in that order: 0.35 nM, 174 nM, 6.4 nM and 2.4 nM.
Turning to `CC#CC(=O)N1C2CN[C@@H](C2)C1c1nc(-c2ccc(C(=O)Nc3cc(C(F)(F)F)ccn3)cc2)c2c(N)nccn12` (stereo partly drawn) [Example 53], the IC50 amounted to 1.3 nM in the test with OCI-LY10 cells, 166 nM with DOHH2 cells, 0.75 nM with TMD8 cells and 1.8 nM on BTK kinase.
Regarding `C=CC(=O)N1C2C[C@@H](C1c1nc(-c3ccc(C(=O)Nc4cc(C(F)(F)F)ccn4)cc3)c3c(N)nccn13)N(C)C2` (stereo partly drawn) [Example 54], the IC50 came out at 0.64 nM in the test with OCI-LY10 cells, 143 nM in the test on DOHH2 cells, 0.15 nM in the test with TMD8 cells and 1.5 nM at BTK kinase.
Consider `C=CC(=O)N1C2C[C@@H](C1c1nc(-c3ccc(C(=O)Nc4cc(C(F)(F)F)ccn4)cc3)c3c(N)nccn13)N(C(C)C)C2` (stereo partly drawn) [Example 55], for which the IC50 in the test with OCI-LY10 cells amounted to 1.87 nM; in the test on DOHH2 cells it was 97 nM; in the test on TMD8 cells, 0.48 nM; on BTK kinase it was 2.3 nM.
With `C=CC(=O)N1C2C[C@@H](C1c1nc(-c3ccc(C(=O)Nc4cc(C(F)(F)F)ccn4)cc3)c3c(N)nccn13)N(C(C)=O)C2` (stereo partly drawn) [Example 56], the IC50 in the test with OCI-LY10 cells was determined as 3.4 nM; with DOHH2 cells it was 74 nM; in the test on TMD8 cells it was 5.9 nM; on BTK kinase it was 4.3 nM.
As to `C=CC(=O)N1C2CC[C@@H](C2)C1c1nc(-c2ccc(C(=O)Nc3cc(C)ccn3)cc2)c2c(N)nccn12` (stereo partly drawn) [Example 62], the IC50 in the test with OCI-LY10 cells worked out at 3.9 nM; with DOHH2 cells it was 179 nM; in the test on TMD8 cells, 2.8 nM; on BTK kinase, 13 nM.
Turning to `C=CC(=O)N1CC2CCCC2C1c1nc(-c2ccc(C(=O)Nc3cc(Cl)ccn3)cc2)c2c(N)nccn12` (stereo not drawn) [Example 68], the concentration for half-maximal inhibition (IC50) in the test on OCI-LY10 cells was 4.4 nM; in the test on DOHH2 cells it was 172 nM; with TMD8 cells, 3.2 nM; on BTK kinase it was 5.3 nM.
Turning to `C=CC(=O)N1C[C@H]2[C@@H]([C@H]1c1nc(-c3ccc(C(=O)Nc4cc(Cl)ccn4)cc3)c3c(N)nccn13)C2(C)C` [Example 69], the IC50 was determined as 0.74 nM with OCI-LY10 cells, 124 nM in the test on DOHH2 cells, 0.62 nM in the test on TMD8 cells and 1.4 nM on BTK kinase.
Take `C=CC(=O)N1C2CC[C@@H](C2)C1c1nc(-c2ccc(C(=O)Nc3cc(Cl)ccn3)cc2)c2c(N)nccn12` (stereo partly drawn) [Example 70]: the IC50 was 3.2 nM in the test on OCI-LY10 cells, 677 nM in the test with DOHH2 cells, 6.8 nM with TMD8 cells and 2.4 nM at BTK kinase.
`C=CC(=O)N1C(c2nc(-c3ccc(C(=O)Nc4cc(Cl)ccn4)cc3)c3c(N)nccn23)CC2CC21` (stereo not drawn) [Example 71]: the concentration for half-maximal inhibition (IC50) is 1.4 nM in the test on OCI-LY10 cells, 84 nM with DOHH2 cells, 8.4 nM in the test with TMD8 cells and 12 nM at BTK kinase.
Taken in the same sequence, the figures for `CC#CC(=O)N1CC2(CC2)C[C@H]1c1nc(-c2ccc(C(C)(O)c3ccccc3)cc2)c2c(N)nccn12` (stereo partly drawn) [Example 73, 1-((6S)-6-(8-amino-1-(4-(1-hydroxy-1-phenylethyl)phenyl)imidazo[1,5-a]pyrazin-3-yl)-5-azaspiro[2.4]heptan-5-yl)but-2-yn-1-one] were 1.4 nM, 124 nM, 42.3 nM and 18 nM.
For `C=CC(=O)N1CC2(CC2)C[C@H]1c1nc(-c2ccc(C(C)(O)c3ccccc3)cc2)c2c(N)nccn12` (stereo partly drawn) [Example 74, 1-((6S)-6-(8-amino-1-(4-(1-hydroxy-1-phenylethyl)phenyl)imidazo[1,5-a]pyrazin-3-yl)-5-azaspiro[2.4]heptan-5-yl)prop-2-en-1-one], in that order: 3.5 nM, 72 nM, 9.7 nM and 24 nM.
Regarding `C=CC(=O)N1CC2CCCC2C1c1nc(-c2ccc(C(C)(O)c3ccccc3)cc2)c2c(N)nccn12` (stereo not drawn) [Example 77], the IC50 in the test with OCI-LY10 cells was 0.26 nM; in the test with DOHH2 cells, 212 nM; with TMD8 cells it was 2.5 nM; at BTK kinase, 8.5 nM.
Taken in the same sequence, the figures for `CC#CC(=O)N1C2CC[C@@H](C2)C1c1nc(-c2ccc(C(C)(O)c3ccccc3)cc2)c2c(N)nccn12` (stereo partly drawn) [Example 80] were 0.67 nM, 618 nM, 4.3 nM and 24 nM.
For `C=CC(=O)N1C2CCC1(c1nc(-c3ccc(C(C)(O)c4ccccc4)cc3)c3c(N)nccn13)COC2` (stereo not drawn) [Example 84], in that order: 4.2 nM, 48 nM, 6.8 nM and 16.3 nM.
In the case of `CC#CC(=O)N1C2CCC1(c1nc(-c3ccc(C(C)(O)c4ccccc4)cc3)c3c(N)nccn13)COC2` (stereo not drawn) [Example 85], the IC50 in the test with OCI-LY10 cells was determined as 0.97 nM; with DOHH2 cells it was 96 nM; with TMD8 cells it was 18.2 nM; on BTK kinase it was 9.4 nM.
As to `C=CC(=O)N1C2C[C@@H](C1c1nc(-c3ccc(C(C)(O)c4ccccc4)cc3)c3c(N)nccn13)N(C(C)C)C2` (stereo partly drawn) [Example 89], the IC50 was 0.23 nM with OCI-LY10 cells, 96 nM with DOHH2 cells, 2.4 nM with TMD8 cells and 14 nM at BTK kinase.
For the compound `CC#CC(=O)N1C2C[C@@H](C1c1nc(-c3ccc(C(C)(O)c4ccccc4)cc3)c3c(N)nccn13)N(C(C)C)C2` (stereo partly drawn) [Example 91], the concentration for half-maximal inhibition (IC50) with OCI-LY10 cells is 0.41 nM; in the test on DOHH2 cells, greater than 1000 nM; with TMD8 cells, 1.4 nM; on BTK kinase, 21 nM.
Take `CC#CC(=O)N1CC2(CC2)C[C@H]1c1nc(-c2ccc(Oc3ccccc3)cc2)c2c(N)nccn12` [Example 92, (S)-1-(6-(8-amino-1-(4-phenoxyphenyl)imidazo[1,5-a]pyrazin-3-yl)-5-azaspiro[2.4]heptan-5-yl) but-2-yn-1-one]: the IC50 is 0.31 nM in the test on OCI-LY10 cells, 712 nM with DOHH2 cells, 7.6 nM with TMD8 cells and 4.3 nM at BTK kinase.
In the case of `C=CC(=O)N1CC2(CC2)C[C@H]1c1nc(-c2ccc(Oc3ccccc3)cc2)c2c(N)nccn12` [Example 93, (S)-1-(6-(8-amino-1-(4-phenoxyphenyl)imidazo[1,5-a]pyrazin-3-yl)-5-azaspiro[2.4]heptan-5-yl)prop-2-en-1-one], the IC50 with OCI-LY10 cells was determined as 0.53 nM; with DOHH2 cells it was 318 nM; in the test with TMD8 cells, 0.65 nM; at BTK kinase it was 3.6 nM.
For `CC#CC(=O)N1CC2CCCC2C1c1nc(-c2ccc(Oc3ccccc3)cc2)c2c(N)nccn12` (stereo not drawn) [Example 97], in that order: 0.4 nM, greater than 1000 nM, 6.2 nM and 2.8 nM.
Turning to `C=CC(=O)N1C2CC[C@@H](C2)C1c1nc(-c2ccc(Oc3ccccc3)cc2)c2c(N)nccn12` (stereo partly drawn) [Example 98], the half-maximal inhibitory concentration (IC50) with OCI-LY10 cells is 0.33 nM; in the test on DOHH2 cells it was greater than 1000 nM; with TMD8 cells it was 6.8 nM; on BTK kinase it was 24 nM.
For the compound `CC#CC(=O)N1C2CC[C@@H](C2)C1c1nc(-c2ccc(Oc3ccccc3)cc2)c2c(N)nccn12` (stereo partly drawn) [Example 99], the IC50 is 2.7 nM in the test with OCI-LY10 cells, greater than 1000 nM in the test on DOHH2 cells, 5.4 nM with TMD8 cells and 39 nM on BTK kinase.

These data come from patent US10793576B2, “Compound used as Bruton's tyrosine kinase inhibitor and preparation method and application thereof” (Chengdu Brilliant Pharmaceutical Co., LTD., priority 2017, dated 2020).
